Experimental data reported in patent US20130296347A1, “Compositions and Methods for Prophylaxis and Treatment of Addictions” (Omeros Corporation, priority 2007, published 2013).
“Also recorded” adds a separate entry of the source.

Columns and labels:
[1] = test system: Marchigian Sardinian alcohol-preferring (msP) rats; assay: Acute voluntary ethanol intake, alcohol access restricted to 2 hours/day; type: in vivo, rat
Experimental: (§1) At the beginning of the experiments, msP rats were allowed free choice between water and 10% (v/v) alcohol 24 h/day for at least 15 days. The fluids were offered in graduated drinking tubes equipped with metallic drinking spouts. The position (to the right or left) of alcohol and water drinking tubes was changed daily to avoid the development of side preference. Water and food were available ad libitum, while alcohol access was either restricted to 2 hours/day (Examples 1 and 2) or was available 24 hours/day (Examples 3 and 4). Alcohol, water and food intakes were measured.
. After acquisition of a stable baseline of ethanol intake (6-8 g/kg bw; daily), alcohol access was restricted to 2 hours a day at the beginning of the dark phase. Water and food were freely available.
(§2) […]. Before starting the treatment, rats were trained to gavage administration procedures for three days, during which they received vehicle (distilled water).
Treatments were carried out at intervals of at least three days. […] Drinking experiments were conducted right at the beginning of the dark cycle. Alcohol, water and food intakes were monitored at 30, 60, 90 and 120 minutes after ethanol was made available.
The msP rats (n=8) were prepared for the study as described in Example 1. After acquisition of a stable baseline of ethanol intake, alcohol access was restricted to 2 hours a day at the beginning of the dark phase. Water and food were freely available. […]. The experiment was conducted using a within subject counterbalanced Latine square design where each animal received all drug doses.
These experiments were conducted at the beginning of the dark cycle and alcohol, and water and food intakes were monitored at 30, 60, 90 and 120 minutes after ethanol was made available.

[2] = test system: Marchigian Sardinian alcohol-preferring (msP) rats; assay: Subchronic (7 days) voluntary ethanol intake, 10% alcohol available 24 hours/day; type: in vivo, rat
Experimental: as §1, §2
Alcohol, water and food intakes were monitored at 2, 8 and 24 hours. Fluids and food intakes were monitored for three additional days after the end of the drug treatment period.
[…]. According to a between-subject design, four groups of msP rats (N=9/group) were prepared as described in Example 3. […] […]. Alcohol, water and food intakes were monitored at 2, 8 and 24 hours. Fluids and food intakes were monitored for three additional days after the end of the drug treatment period.

alcoholic patients = assay: Observational study of alcohol abuse in human patients; type: in vivo
Excerpt: ACT)+psychotherapy. […] Patients were instructed to record in a personal logbook the number of drinks per day and the time of the day drinks occurred. At the end of the study, the logbooks were returned to the clinical personnel who analyzed the data. […] In addition, biochemical parameters to ascertain alcohol detoxification and to measure recovery of physiological functions (i.e., hepatic function) were monitored monthly. Hematological parameters measured included: mean corpuscular volume (MCV); gamma-GT; aspartate aminotransferase (AST); alanine aminotransferase (ALT); and carbohydrate-deficient transferring (CDT). MCV and CDT are biomarkers for ethanol consumption, and GGT, ALT and AST are biomarkers for hepatic functionality. Data were analyzed by analysis of variance followed by Newman-Keuls post hoc tests when appropriate.

Long Evans rats = assay: FR5 nicotine self-administration; type: in vivo, rat; details: pioglitazone 30 mg/kg OS 12 hours and 1 hour before session; p<0.05
Experimental: Bupropion hydrochloride (Sigma, Milan, Italy) was dissolved in saline. Nicotine tartrate (Sigma, Milan, Italy) was dissolved in isotonic saline at a concentration of 0.03 mg/0.1 ml free base. The pH of the nicotine solution was adjusted to 7 with dilute NaOH. Drug or vehicle solution was infused at a volume of 0.1 ml over 4 s.
Male Long Evans rats weighing between 180 and 200 g at the time of arrival in the lab were used. The rats were housed in groups of three in a humidity- and temperature-controlled (22° C.) vivarium on a 12 h:12 h reverse light/dark cycle (on, 17:00; off, 05:00) with ad libitum access to food and water. One week after arrival, the rats were subjected to surgery, and a silastic catheter was implanted into the right jugular vein.
After the successful completion of cocaine training, rats were allowed to self-administer nicotine at the 0.03 mg/kg/infusion dose by switching the delivery of cocaine for the delivery of a nicotine infusion. Nicotine self-administration training continued until stable baseline of responding was established (less than 20% variation for 3 consecutive days calculated for each single rat). At this point, drug testing began.
. […] A 3-day interval was allowed between drug testing. During these intervals, nicotine self-administration was continued to re-establish lever responses baseline.
Statistical significance was set at P<0.05

[3] = Young, Buckle et al. 1998; Breidert et al. 2002; cited from earlier work
[4] = pioglitazone 30 mg/kg OS at 12 hours and 1 hour before access to ethanol
[5] = pioglitazone 30 mg/day or naltrexone 50 mg/day + psychotherapy

CCc1ccc(CCOc2ccc(CC3SC(=O)NC3=O)cc2)nc1.Cl (stereo not shown) [pioglitazone]
ethanol consumption at 30, 60, or 90 minutes [1, 4]: not at 30, 60, or 90 minutes | ethanol consumption at 2 hours [1, 4]: significantly reduced | ethanol intake, overall treatment effect (ANOVA) ([1]; pioglitazone 10.0, 30.0 mg/kg OS): absence of a significant treatment effect | voluntary ethanol intake, overall ([2]; pioglitazone 10.0 or 30.0 mg/kg OS twice a day for 7 days): significantly reduced | ethanol intake starting from the 4th day of treatment ([2]; pioglitazone both doses (10 and 30 mg/kg)): significantly reduced | ethanol intake, onset of effect ([2]; pioglitazone highest dose (30 mg/kg), 7 days): appeared from the first day of treatment | hepatic parameters (GGT, ALT, AST) (alcoholic patients; 2-month treatment): more pronounced | Anxiety Score, STAY-Y1 scale (mean score values) (alcoholic patients; T = 1.1 (month 1, week 1)): 58 | Depression Scale M.A.D.R.S (mean score values) (alcoholic patients; T = 1.3): 10 | Depression Scale M.A.D.R.S (mean score values) (alcoholic patients; T = 1.4): 11 | Depression Scale M.A.D.R.S (mean score values) (alcoholic patients; T = 2.3): 10 | depression score, time course (alcoholic patients; during treatment with pioglitazone 30 mg/day): decreased starting from the second week of treatment | effect on daily drinks, comparison of drugs (alcoholic patients; month 2 week 2 (T2.2) to month 2 week 4 (T2.4), p<0.001): significantly higher than that of naltrexone | blood parameters (MCV, CDT, GGT, ALT, AST) (alcoholic patients; pioglitazone 30 mg/day): rapid normalization | progressive decrease in anxiety score during treatment (alcoholic patients; pioglitazone 30 mg/day): highest effect | progressive decrease in obsessive compulsive score for alcohol (OCDS) (alcoholic patients; pioglitazone 30 mg/day): extremely robust; also recorded: consistently reduced | daily ethanol intake (number of daily drinks) (alcoholic patients; [5]): significantly reduced | number of abstinence days (alcoholic patients; [5]): increased; also recorded: highest effect | CDT and AST, naltrexone versus pioglitazone (alcoholic patients; post hoc): No significant difference | OCDS versus controls (alcoholic patients; post hoc, P<0.001): statistically significant difference | all five blood biomarkers versus controls (psychotherapy alone) (alcoholic patients; post hoc, P<0.001): statistical difference | reducing the values of MCV, GGT and ALT, comparison of drugs (alcoholic patients; post hoc, P<0.001): more effective than naltrexone | MADRS depression score, pioglitazone versus naltrexone (alcoholic patients; post hoc, p<0.001): significantly different | OCDS, pioglitazone versus naltrexone (alcoholic patients; post hoc, p<0.001): more effective than naltrexone | anxiety score, pioglitazone versus naltrexone (alcoholic patients; post hoc, p<0.001): more effective than naltrexone | number of abstinence days, comparison of drugs (alcoholic patients; second month of therapy (T 2.1-T2.4)): significantly higher | nicotine self-administration (Long Evans rats): significantly reduced | crossing of the blood brain barrier compared with rosiglitazone [3]: crosses the blood brain barrier more easily
